Tested on: 695427-040-R-J1-PDC complex spheroids, viability percent T/C
Assay: Anticancer human tumor 695427-040-R-J1-PDC patient-derived colon adenocarcinoma cell line growth inhibition [GQUAD]
Settings: for IC50: curve of first compound; for viability, T/C: stronger effect = lower value
Method in brief: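 Tumor cells were grown as complex spheroids with HUVEC endothelial cells and mesenchymal stem cells as stroma. G-quadruplex stabilizers were combined with targeted agents over half-log dilutions from near the clinical Cmax, or from 10 microM.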

[1] = second compound 0.0316 µM, first compound 0.0316 µM
[2] = second compound 0.0316 µM, first compound 0.1 µM
[3] = second compound 0.0316 µM, first compound 0.316 µM
[4] = second compound 0.0316 µM, first compound 1 µM
[5] = second compound 0.0316 µM, first compound 3.16 µM
[6] = second compound 0.0316 µM, first compound 10 µM
[7] = second compound 0.1 µM, first compound 0.0316 µM
[8] = second compound 0.1 µM, first compound 0.1 µM
[9] = second compound 0.1 µM, first compound 0.316 µM
[10] = second compound 0.1 µM, first compound 1 µM
[11] = second compound 0.1 µM, first compound 3.16 µM
[12] = second compound 0.1 µM, first compound 10 µM
[13] = second compound 0.316 µM, first compound 0.0316 µM
[14] = second compound 0.316 µM, first compound 0.1 µM
[15] = second compound 0.316 µM, first compound 0.316 µM
[16] = second compound 0.316 µM, first compound 1 µM
[17] = second compound 0.316 µM, first compound 3.16 µM
[18] = second compound 0.316 µM, first compound 10 µM
[19] = second compound 1 µM, first compound 0.0316 µM
[20] = second compound 1 µM, first compound 0.1 µM
[21] = second compound 1 µM, first compound 0.316 µM
[22] = second compound 1 µM, first compound 1 µM
[23] = second compound 1 µM, first compound 3.16 µM
[24] = second compound 1 µM, first compound 10 µM
[25] = second compound 3.16 µM, first compound 0.0316 µM
[26] = second compound 3.16 µM, first compound 0.1 µM
[27] = second compound 3.16 µM, first compound 0.316 µM
[28] = second compound 3.16 µM, first compound 1 µM
[29] = second compound 3.16 µM, first compound 3.16 µM
[30] = second compound 3.16 µM, first compound 10 µM
[31] = second compound 10 µM, first compound 0.0316 µM
[32] = second compound 10 µM, first compound 0.1 µM
[33] = second compound 10 µM, first compound 0.316 µM
[34] = second compound 10 µM, first compound 1 µM
[35] = second compound 10 µM, first compound 3.16 µM
[36] = second compound 10 µM, first compound 10 µM
[37] = second compound 0.0316 µM, first compound 0.000999 µM
[38] = second compound 0.0316 µM, first compound 0.00316 µM
[39] = second compound 0.0316 µM, first compound 0.00999 µM
[40] = second compound 0.0316 µM, first compound 0.0999 µM
[41] = second compound 0.1 µM, first compound 0.000999 µM
[42] = second compound 0.1 µM, first compound 0.00316 µM
[43] = second compound 0.1 µM, first compound 0.00999 µM
[44] = second compound 0.1 µM, first compound 0.0999 µM
[45] = second compound 0.316 µM, first compound 0.000999 µM
[46] = second compound 0.316 µM, first compound 0.00316 µM
[47] = second compound 0.316 µM, first compound 0.00999 µM
[48] = second compound 0.316 µM, first compound 0.0999 µM
[49] = second compound 1 µM, first compound 0.000999 µM
[50] = second compound 1 µM, first compound 0.00316 µM
[51] = second compound 1 µM, first compound 0.00999 µM
[52] = second compound 1 µM, first compound 0.0999 µM
[53] = second compound 3.16 µM, first compound 0.000999 µM
[54] = second compound 3.16 µM, first compound 0.00316 µM
[55] = second compound 3.16 µM, first compound 0.00999 µM
[56] = second compound 3.16 µM, first compound 0.0999 µM
[57] = second compound 10 µM, first compound 0.000999 µM
[58] = second compound 10 µM, first compound 0.00316 µM
[59] = second compound 10 µM, first compound 0.00999 µM
[60] = second compound 10 µM, first compound 0.0999 µM
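Further: spheroids exposed to compounds for seven days before readout.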

C=CC(=O)N1CCN(c2nc(=O)n(-c3c(C)ccnc3C(C)C)c3nc(-c4c(O)cccc4F)c(F)cc23)C(C)C1 (stereo not drawn) + Cc1[nH]c2ccc(F)cc2c1-c1nc2c3cccnc3c3ncccc3c2[nH]1
IC50 (second compound 0.0316 µM): > 10000 nM | IC50 (second compound 0.1 µM): > 10000 nM | IC50 (second compound 0.316 µM): > 10000 nM | IC50 (second compound 1 µM): > 10000 nM | IC50 (second compound 3.16 µM): > 10000 nM | IC50 (second compound 10 µM): > 10000 nM | viability, T/C [1]: 108% | viability, T/C [2]: 86% | viability, T/C [3]: 107% | viability, T/C [4]: 83% | viability, T/C [5]: 93.2% | viability, T/C [6]: 90.2% | viability, T/C [7]: 101% | viability, T/C [8]: 87.6% | viability, T/C [9]: 99.9% | viability, T/C [10]: 67.8% | viability, T/C [11]: 104% | viability, T/C [12]: 106% | viability, T/C [13]: 102% | viability, T/C [14]: 95.7% | viability, T/C [15]: 84.2% | viability, T/C [16]: 94.8% | viability, T/C [17]: 86.9% | viability, T/C [18]: 92.8% | viability, T/C [19]: 80.5% | viability, T/C [20]: 90% | viability, T/C [21]: 79.6% | viability, T/C [22]: 101% | viability, T/C [23]: 104% | viability, T/C [24]: 76.8% | viability, T/C [25]: 69% | viability, T/C [26]: 77.1% | viability, T/C [27]: 81.5% | viability, T/C [28]: 86.5% | viability, T/C [29]: 90.3% | viability, T/C [30]: 86.8% | viability, T/C [31]: 73.6% | viability, T/C [32]: 81.2% | viability, T/C [33]: 86.2% | viability, T/C [34]: 82.7% | viability, T/C [35]: 81.8% | viability, T/C [36]: 69.1%

CCc1c2c(nc3ccc(O)cc13)-c1cc3c(c(=O)n1C2)COC(=O)[C@]3(O)CC + Cc1[nH]c2ccc(F)cc2c1-c1nc2c3cccnc3c3ncccc3c2[nH]1
IC50 (second compound 0.0316 µM): 168 nM | IC50 (second compound 0.1 µM): 161 nM | IC50 (second compound 0.316 µM): 112 nM | IC50 (second compound 1 µM): 106 nM | IC50 (second compound 3.16 µM): 82.4 nM | IC50 (second compound 10 µM): 106 nM | viability, T/C [37]: 95.4% | viability, T/C [38]: 74% | viability, T/C [39]: 87.9% | viability, T/C [1]: 57.8% | viability, T/C [40]: 62% | viability, T/C [3]: 40.8% | viability, T/C [41]: 93.7% | viability, T/C [42]: 71.6% | viability, T/C [43]: 80.2% | viability, T/C [7]: 57.7% | viability, T/C [44]: 57.6% | viability, T/C [9]: 43% | viability, T/C [45]: 99.5% | viability, T/C [46]: 64.2% | viability, T/C [47]: 82.2% | viability, T/C [13]: 63.2% | viability, T/C [48]: 56.1% | viability, T/C [15]: 34.5% | viability, T/C [49]: 67.7% | viability, T/C [50]: 85.8% | viability, T/C [51]: 82% | viability, T/C [19]: 64.6% | viability, T/C [52]: 52.5% | viability, T/C [21]: 37.6% | viability, T/C [53]: 72% | viability, T/C [54]: 74.5% | viability, T/C [55]: 63.5% | viability, T/C [25]: 59.5% | viability, T/C [56]: 48.7% | viability, T/C [27]: 33.2% | viability, T/C [57]: 71.9% | viability, T/C [58]: 72.2% | viability, T/C [59]: 66.4% | viability, T/C [31]: 60.8% | viability, T/C [60]: 49.8% | viability, T/C [33]: 37.4%

Cc1cccc(N(C)C(=O)C2C(O)CCN2c2nc(C)cc(C(F)(F)F)c2C#N)c1 (stereo not drawn) + Cc1[nH]c2ccc(F)cc2c1-c1nc2c3cccnc3c3ncccc3c2[nH]1
IC50 (second compound 0.0316 µM): > 10000 nM | IC50 (second compound 0.1 µM): > 10000 nM | IC50 (second compound 0.316 µM): > 10000 nM | IC50 (second compound 1 µM): > 10000 nM | IC50 (second compound 3.16 µM): > 10000 nM | IC50 (second compound 10 µM): > 10000 nM | viability, T/C [1]: 109% | viability, T/C [2]: 124% | viability, T/C [3]: 105% | viability, T/C [4]: 106% | viability, T/C [5]: 95.2% | viability, T/C [6]: 92.3% | viability, T/C [7]: 102% | viability, T/C [8]: 88% | viability, T/C [9]: 107% | viability, T/C [10]: 76.3% | viability, T/C [11]: 104% | viability, T/C [12]: 86.4% | viability, T/C [13]: 93.2% | viability, T/C [14]: 91.2% | viability, T/C [15]: 98.8% | viability, T/C [16]: 76.9% | viability, T/C [17]: 91.4% | viability, T/C [18]: 80.5% | viability, T/C [19]: 79.7% | viability, T/C [20]: 89.4% | viability, T/C [21]: 85.2% | viability, T/C [22]: 82.5% | viability, T/C [23]: 93.8% | viability, T/C [24]: 87.1% | viability, T/C [25]: 70.2% | viability, T/C [26]: 75.2% | viability, T/C [27]: 84.8% | viability, T/C [28]: 91.1% | viability, T/C [29]: 95.6% | viability, T/C [30]: 72.6% | viability, T/C [31]: 68.4% | viability, T/C [32]: 78.4% | viability, T/C [33]: 83.8% | viability, T/C [34]: 79.9% | viability, T/C [35]: 88.3% | viability, T/C [36]: 72%

Cn1ncnc1[C@H]1c2n[nH]c(=O)c3cc(F)cc(c23)N[C@@H]1c1ccc(F)cc1 + Cc1[nH]c2ccc(F)cc2c1-c1nc2c3cccnc3c3ncccc3c2[nH]1
IC50 (second compound 0.0316 µM): > 316 nM | IC50 (second compound 0.1 µM): > 316 nM | IC50 (second compound 0.316 µM): > 316 nM | IC50 (second compound 1 µM): > 316 nM | IC50 (second compound 3.16 µM): > 316 nM | IC50 (second compound 10 µM): > 316 nM | viability, T/C [37]: 98.9% | viability, T/C [38]: 86.2% | viability, T/C [39]: 98.2% | viability, T/C [1]: 103% | viability, T/C [40]: 104% | viability, T/C [3]: 66.6% | viability, T/C [41]: 99.1% | viability, T/C [42]: 93.8% | viability, T/C [43]: 82% | viability, T/C [7]: 79.8% | viability, T/C [44]: 97.8% | viability, T/C [9]: 66.8% | viability, T/C [45]: 99.7% | viability, T/C [46]: 84.7% | viability, T/C [47]: 91.4% | viability, T/C [13]: 89.1% | viability, T/C [48]: 103% | viability, T/C [15]: 81.9% | viability, T/C [49]: 97.4% | viability, T/C [50]: 68.8% | viability, T/C [51]: 87.5% | viability, T/C [19]: 91.3% | viability, T/C [52]: 96.1% | viability, T/C [21]: 68.2% | viability, T/C [53]: 76.8% | viability, T/C [54]: 87% | viability, T/C [55]: 85.3% | viability, T/C [25]: 79.9% | viability, T/C [56]: 83.7% | viability, T/C [27]: 86% | viability, T/C [57]: 70.9% | viability, T/C [58]: 56.1% | viability, T/C [59]: 88.3% | viability, T/C [31]: 80.5% | viability, T/C [60]: 82.7% | viability, T/C [33]: 74.3%
